Laboratory results: patent publication US20220395528A1, “AGENT FOR PREVENTING OR TREATING […] DEVICE FOR PREVENTING OR TREATING ARRHYTHMIA” (SCHOOL JURIDICAL PERSON THE KITASATO INSTITUTE, priority 2019, published 2022)

Legend:
Pigs = test: Number of arrhythmias on electrocardiogram in pigs after balloon occlusion of the anterior descending branch of the left coronary artery, gas inhalation (Experiment Example 1); assay type: in vivo; conditions: coronary blood flow interrupted, counted for 10 minutes of inhalation versus the preceding 10 minutes, FIG. 3
Procedure: Pigs were anesthetized with pentobarbital, and electrocardiogram measurement was performed. After tracheal intubation, an artificial respirator was connected, and respiratory management was performed. A catheter was inserted into the descending aorta from the inguinal region, a balloon was placed in the anterior descending branch of the left coronary artery, and the balloon was inflated to interrupt the blood flow. After 40 minutes, an electrocardiogram was measured without doing anything for 10 minutes, the number of arrhythmias was counted, and after that, for 10 minutes, the number of arrhythmias was counted in the same manner for a control group, a hydrogen inhalation group, a nitric oxide inhalation group, or a combination group (hydrogen and nitric oxide inhalation group) in a divided manner.
A gas inhaled by the control group was a mixed gas (oxygen concentration of 35%) of oxygen and nitrogen and containing no hydrogen or nitric oxide.

[1] = high-concentration hydrogen inhaled, gaseous hydrogen used as a gas for diving; cited from earlier work

| Compound | number of arrhythmias (Pigs; mixed gas of air and nitric oxide, nitric oxide concentration 80 ppm) | side effects [1] | number of arrhythmias (Pigs; mixed gas of air and hydrogen, hydrogen concentration 1.3%) |
| --- | --- | --- | --- |
| [N]=O [nitric oxide, reference compound] | increase |  |  |
| [HH] [hydrogen] |  | no side effects | decreased |
